The target of one data set is T1, Prolyl endopeptidase (Homo sapiens, UniProt P48147).
T1 sequence (P48147 whole entry): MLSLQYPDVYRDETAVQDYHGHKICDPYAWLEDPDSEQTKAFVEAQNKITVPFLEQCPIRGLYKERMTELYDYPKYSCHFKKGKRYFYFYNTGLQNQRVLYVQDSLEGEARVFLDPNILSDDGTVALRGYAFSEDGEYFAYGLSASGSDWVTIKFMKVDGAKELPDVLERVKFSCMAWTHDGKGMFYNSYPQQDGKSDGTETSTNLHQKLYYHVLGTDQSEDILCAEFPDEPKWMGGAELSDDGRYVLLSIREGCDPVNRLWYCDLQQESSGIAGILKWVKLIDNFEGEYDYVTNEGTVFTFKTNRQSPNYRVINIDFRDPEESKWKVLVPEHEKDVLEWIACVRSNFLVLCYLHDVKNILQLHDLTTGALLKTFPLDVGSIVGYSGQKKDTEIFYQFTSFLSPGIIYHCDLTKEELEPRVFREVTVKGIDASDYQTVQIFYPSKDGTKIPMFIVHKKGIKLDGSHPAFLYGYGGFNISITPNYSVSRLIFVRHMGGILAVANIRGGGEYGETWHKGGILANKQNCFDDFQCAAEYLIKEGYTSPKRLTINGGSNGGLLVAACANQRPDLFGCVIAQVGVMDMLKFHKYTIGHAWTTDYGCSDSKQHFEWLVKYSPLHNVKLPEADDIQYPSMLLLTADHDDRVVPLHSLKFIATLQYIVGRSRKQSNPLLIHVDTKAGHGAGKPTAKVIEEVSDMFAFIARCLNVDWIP

The nature of a further data set: in vitro. Conditions: PAMPA, pH 7.4.
Data set [1] has as its target T2, Acetylcholinesterase (Homo sapiens, UniProt P22303). Briefly: Inhibition of recombinant human acetylcholinesterase using acetylthiocholine iodide as substrate preincubated with enzyme for 5 mins followed by substrate addition and measured at 2 mins interval by Ellman's method. In general terms: Ellman's reagent forms a yellow product with free thiols.
For another data set, the system named is CHO-K1. Briefly: Cytotoxicity against CHO-K1 cells assessed as reduction in cell viability measured after 24 hrs by MTT assay. It counts as cell-based, Cricetulus griseus. A general note: Tetrazolium assays rely on reduction of a dye to a coloured formazan, in cell work by metabolically active cells.
Data set [2] in a line: Antioxidant activity assessed as radical scavenging activity measured after 30 mins by microplate reader based DPPH assay. The format is functional. For orientation: The DPPH test is a chemical assay of radical scavenging.
Data set [3] is described as follows: Antioxidant activity assessed as radical scavenging activity incubated for 20 mins by DPPH assay based UV spectrophotometer analysis. It counts as functional.
A short description of data set [4]: Inhibition of HFIP-pretreated Tau (306 to 336) (unknown origin) self-aggregation at 25 uM measured at interval of 10 mins for overnight with 1 min shaking by thioflavin-T fluorescence method. The conditions noted are these: Homo sapiens.
The target of data set [5] is T2, Acetylcholinesterase. Briefly: Noncompetitive inhibition of human acetylcholinesterase assessed as affinity towards free enzyme using acetylthiocholine iodide as substrate measured by Ellman's method based Lineweaver-Burk plot analysis.
The target of data set [6] is T2, Acetylcholinesterase. Briefly: Noncompetitive inhibition of human acetylcholinesterase assessed as decrease in apparent Vmax with unchanged Km using acetylthiocholine iodide as substrate by Lineweaver-Burk plot analysis.
Setting [7] is: Cricetulus griseus, CHO-K1, 24 h, read-out: IC50.

The source made the active and inactive calls. The rule behind the calls is not given here.

T2 sequence (P22303 whole entry): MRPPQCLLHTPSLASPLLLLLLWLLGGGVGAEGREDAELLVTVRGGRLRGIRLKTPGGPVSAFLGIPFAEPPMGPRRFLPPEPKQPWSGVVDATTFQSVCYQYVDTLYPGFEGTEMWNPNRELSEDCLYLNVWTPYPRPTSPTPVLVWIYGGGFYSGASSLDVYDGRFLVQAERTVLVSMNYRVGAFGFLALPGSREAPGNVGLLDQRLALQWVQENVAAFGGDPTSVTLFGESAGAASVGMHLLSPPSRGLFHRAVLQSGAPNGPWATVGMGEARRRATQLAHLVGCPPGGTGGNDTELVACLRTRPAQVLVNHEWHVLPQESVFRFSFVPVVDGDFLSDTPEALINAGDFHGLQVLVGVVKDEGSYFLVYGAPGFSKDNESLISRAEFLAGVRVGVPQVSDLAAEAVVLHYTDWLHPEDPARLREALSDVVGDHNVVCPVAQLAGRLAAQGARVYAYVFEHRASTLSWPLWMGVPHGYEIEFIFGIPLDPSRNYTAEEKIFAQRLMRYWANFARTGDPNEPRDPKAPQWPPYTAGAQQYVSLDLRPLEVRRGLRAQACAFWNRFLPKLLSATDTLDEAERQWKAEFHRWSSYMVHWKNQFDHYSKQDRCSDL
Description for Prolyl endopeptidase: Inhibition of recombinant human Prolyl oligopeptidase expressed in Escherichia coli expression system using (Z)-Gly-Pro-p-nitroanilide as substrate preincubated with enzyme for 5 mins followed by substrate addition and measured for 30 mins by spectrophotometric analysis
Description for in vitro: Permeability of the compound at pH 7.4 measured after 6 hrs by PAMPA method

The term IC50 denotes the concentration needed to halve the response being measured. The term Papp denotes a coefficient for how fast a substance crosses the barrier. A higher Papp goes with fast passage. Broadly, the EC50 is the concentration needed to bring the measured effect to its halfway point. For the molecule `COc1ccc2cc3[n+](cc2c1OCc1cccc([N+](=O)[O-])c1)CCc1cc2c(cc1-3)OCO2.[Br-]`, the figures for the IC50 on Prolyl endopeptidase, at Acetylcholinesterase [1] and in the data set with CHO-K1 (setting [7]) were 24.7 µM, 1.45 µM and 30 µM, respectively. Also, in “in vitro”, the apparent permeability (Papp) at 6 h was 1.2 ×10⁻⁶ cm/s. Moreover, in [2], the EC50 amounted to 5600 µM.

Turning to `COc1ccc2cc3[n+](cc2c1O)CCc1cc2c(cc1-3)OCO2` [BERBERRUBINE CHLORIDE], the EC50 in data set [3] turned out to be 87 µM.

Take `COc1ccc2cc3[n+](cc2c1OCc1ccccc1C)CCc1cc2c(cc1-3)OCO2`: the results for the IC50 at Prolyl endopeptidase, at Acetylcholinesterase [1] and in the data set on CHO-K1 (setting [7]) were 71.1 µM, 10.4 µM and 55 µM, respectively. Further, the concentration for a half-maximal effect (EC50) in [2] was found to be 1200 µM.

Turning to `COC(=O)c1ccc(COc2c(OC)ccc3cc4[n+](cc23)CCc2cc3c(cc2-4)OCO3)cc1`, the IC50 on Prolyl endopeptidase is 47.6 µM; on Acetylcholinesterase [1] it was 2.6 µM; with CHO-K1 (setting [7]), 50 µM. For the same molecule, the concentration for a half-maximal effect (EC50) in [2] worked out at 5300 µM.

For orientation: inhibition means how much of the control response was suppressed. Regarding `COc1ccc2cc3[n+](cc2c1OC)CCc1cc2c(cc1-3)OCO2.[Cl-]` [BERBERINE CHLORIDE], the Papp at 6 h in the data set “in vitro” stood at 0.2 ×10⁻⁶ cm/s. The IC50 with CHO-K1 (setting [7]) turned out to be 336 µM. Also, in data set [4], the inhibition came to 25%. In data set [2], the half-maximal effective concentration (EC50) amounted to 5500 µM.

With `COc1ccc2cc3[n+](cc2c1OC(C)c1ccccc1)CCc1cc2c(cc1-3)OCO2.[Br-]` (configuration not stated), the IC50 came out at 29.5 µM against Prolyl endopeptidase, 0.79 µM on Acetylcholinesterase [1] and 42 µM with CHO-K1 (setting [7]). Besides, in the data set “in vitro”, the Papp at 6 h amounted to 0.4 ×10⁻⁶ cm/s. Also, the inhibition in data set [4] was 38.3%. Moreover, in [2], the EC50 is 5600 µM.

In the case of `COc1ccc2cc3[n+](cc2c1OCc1ccc(C#N)cc1)CCc1cc2c(cc1-3)OCO2`, the IC50 on Prolyl endopeptidase was determined as 36.5 µM; on Acetylcholinesterase [1], 1.7 µM; in the data set on CHO-K1 (setting [7]) it was 292 µM. For the same molecule, in data set [2], the EC50 was above 6000 µM.

For the molecule `Nc1c2c(nc3ccccc13)CCCC2` [TACRINE], the Papp at 6 h in “in vitro” was 6 ×10⁻⁶ cm/s.

The Ki is a measure of affinity in units of concentration, obtained from inhibition or displacement. In the case of `COc1ccc2cc3[n+](cc2c1OCc1ccc(C(F)(F)F)cc1)CCc1cc2c(cc1-3)OCO2.[Br-]`, the IC50 at Prolyl endopeptidase was determined as 27.4 µM; at Acetylcholinesterase [1], 1.3 µM; in the data set with CHO-K1 (setting [7]), 21 µM. In “in vitro”, this molecule came in with a Papp at 6 h of 0.8 ×10⁻⁶ cm/s. On Acetylcholinesterase [5], the Ki came to 0.000456 µM. Besides, the inhibition entry on Acetylcholinesterase [6] is “Active”. Besides, the EC50 in data set [2] came to 5300 µM.

For `COc1ccc2cc3[n+](cc2c1OCc1cccc(C)c1)CCc1cc2c(cc1-3)OCO2`, the IC50 on Prolyl endopeptidase was determined as 79.1 µM; on Acetylcholinesterase [1], 7.3 µM; with CHO-K1 (setting [7]) it was 58 µM. In data set [2], the EC50 was 1200 µM.

In the case of `COc1ccc2cc3[n+](cc2c1OCc1ccc(C(C)C)cc1)CCc1cc2c(cc1-3)OCO2`, the IC50 on Prolyl endopeptidase stood at 53.3 µM; at Acetylcholinesterase [1] it was 4.2 µM; in the data set on CHO-K1 (setting [7]), 17 µM. Moreover, the EC50 in data set [2] is 1300 µM.

As to `C[C@H]1c2cccc(O)c2C(=O)C2=C(O)[C@]3(O)C(=O)C(C(N)=O)=C(O)[C@@H](N(C)C)[C@@H]3[C@@H](O)[C@@H]21`, the inhibition in data set [4] turned out to be 39.6%.

As to `COc1ccc2cc3[n+](cc2c1OCc1cccc(Br)c1)CCc1cc2c(cc1-3)OCO2`, the values for the half-inhibitory concentration (IC50) against Prolyl endopeptidase, at Acetylcholinesterase [1] and in the data set with CHO-K1 (setting [7]) were 59.6 µM, 2.7 µM and 32 µM, respectively. The EC50 in data set [2] came out at 2200 µM.

In the case of `COc1ccc2cc3[n+](cc2c1OCc1ccccc1Br)CCc1cc2c(cc1-3)OCO2`, the IC50 was 38.9 µM against Prolyl endopeptidase, 1.7 µM on Acetylcholinesterase [1] and 26 µM in the data set on CHO-K1 (setting [7]). For the same molecule, in data set [2], the EC50 was above 6000 µM.

In the data set “in vitro”, `CO/N=C(\C(=O)N[C@@H]1C(=O)N2C(C(=O)O)=C(COC(N)=O)CS[C@H]12)c1ccco1` [CEFUROXIME] displayed an apparent permeability coefficient (Papp) at 6 h of 0.3 ×10⁻⁶ cm/s.

With `COc1ccc2cc3[n+](cc2c1OCc1ccccc1)CCc1cc2c(cc1-3)OCO2.[Br-]`, the IC50 was 25.4 µM against Prolyl endopeptidase, 5 µM on Acetylcholinesterase [1] and 55 µM in the data set on CHO-K1 (setting [7]). The Papp at 6 h in the data set “in vitro” was 0.4 ×10⁻⁶ cm/s. Moreover, the EC50 in data set [2] came to 1900 µM.

As to `Cc1c(C)c2c(c(C)c1O)CCC(C)(C(=O)O)O2` (configuration not stated) [TROLOX], the EC50 in [2] was found to be 16.2 µM.

As for `CC(=O)N[C@@H](CS)C(=O)O` [ACETYLCYSTEINE], the EC50 in data set [2] worked out at 27.9 µM.

As for `COc1ccc2cc3[n+](cc2c1OCc1ccc(Cl)cc1)CCc1cc2c(cc1-3)OCO2`, the IC50 amounted to 39.4 µM against Prolyl endopeptidase, 2.5 µM on Acetylcholinesterase [1] and 13 µM with CHO-K1 (setting [7]). Further, in [2], the half-maximal effective concentration (EC50) worked out at 5200 µM.

`COc1ccc(COc2c(OC)ccc3cc4[n+](cc23)CCc2cc3c(cc2-4)OCO3)cc1.[Br-]`: the IC50 at Prolyl endopeptidase is 40.5 µM; at Acetylcholinesterase [1] it was 5.3 µM; in the data set on CHO-K1 (setting [7]), 42 µM. The Papp at 6 h in “in vitro” stood at 4.8 ×10⁻⁶ cm/s. In addition, the EC50 in data set [2] is above 6000 µM.

As for `COc1ccc2cc3[n+](cc2c1OCc1ccc(Br)cc1)CCc1cc2c(cc1-3)OCO2.[Br-]`, the IC50 against Prolyl endopeptidase was found to be 19.4 µM; on Acetylcholinesterase [1], 3.3 µM; in the data set with CHO-K1 (setting [7]), 48 µM. For the same molecule, in “in vitro”, the Papp at 6 h was 0.6 ×10⁻⁶ cm/s. Moreover, the EC50 in [2] was above 6000 µM.

`COc1ccc2cc3[n+](cc2c1OCc1ccc(Cl)c(Cl)c1)CCc1cc2c(cc1-3)OCO2`: the figures for the IC50 against Prolyl endopeptidase, on Acetylcholinesterase [1] and in the data set on CHO-K1 (setting [7]) were 52.7 µM, 1.22 µM and 9 µM, respectively. For the same molecule, in data set [2], the EC50 was above 6000 µM.

In the case of `COc1ccc2cc3[n+](cc2c1OCc1ccc([N+](=O)[O-])cc1)CCc1cc2c(cc1-3)OCO2.[Br-]`, the half-maximal inhibitory concentration (IC50) is 21.2 µM against Prolyl endopeptidase, 0.99 µM on Acetylcholinesterase [1] and “Nd(Insoluble)” with CHO-K1 (cho-k1). In the data set “in vitro”, the Papp at 6 h amounted to 1.4 ×10⁻⁶ cm/s. Besides, the EC50 in data set [2] worked out at 5000 µM.

For `COc1ccc2cc3[n+](cc2c1OCc1cccc(Cl)c1)CCc1cc2c(cc1-3)OCO2`, the half-inhibitory concentration (IC50) against Prolyl endopeptidase amounted to 67 µM; at Acetylcholinesterase [1], 1.9 µM; in the data set on CHO-K1 (setting [7]), 30 µM. In addition, the half-maximal effective concentration (EC50) in data set [2] was 5400 µM.

`COc1ccc2cc3[n+](cc2c1OCc1cc(C)cc(C)c1)CCc1cc2c(cc1-3)OCO2`: the figures for the half-maximal inhibitory concentration (IC50) on Prolyl endopeptidase, at Acetylcholinesterase [1] and in the data set on CHO-K1 (setting [7]) were 58.7 µM, 2.5 µM and 23 µM, respectively. The EC50 in [2] came out at 990 µM.

Turning to `COc1ccc2cc3[n+](cc2c1OCc1ccc(C)cc1)CCc1cc2c(cc1-3)OCO2.[Br-]`, the IC50 was 10.7 µM at Prolyl endopeptidase, 75.8 µM on Acetylcholinesterase [1] and 43 µM in the data set with CHO-K1 (setting [7]). The Papp at 6 h in the data set “in vitro” turned out to be 0.8 ×10⁻⁶ cm/s. For the same molecule, the inhibition in data set [4] is 31.9%. The EC50 in data set [2] came to 1900 µM.

Consider `COc1cccc(COc2c(OC)ccc3cc4[n+](cc23)CCc2cc3c(cc2-4)OCO3)c1`, for which the 50% inhibitory concentration (IC50) stood at 40.4 µM against Prolyl endopeptidase, 3.5 µM on Acetylcholinesterase [1] and 46 µM in the data set on CHO-K1 (setting [7]). In addition, in data set [2], the EC50 is 5300 µM.

Take `COc1ccc2cc3[n+](cc2c1OCc1ccc(SC)cc1)CCc1cc2c(cc1-3)OCO2`: the IC50 against Prolyl endopeptidase came to 34 µM; at Acetylcholinesterase [1], 2.6 µM; with CHO-K1 (setting [7]), 43 µM. Besides, the EC50 in [2] is above 6000 µM.

Consider `COc1ccc2cc3[n+](cc2c1OCc1ccc2ccccc2c1)CCc1cc2c(cc1-3)OCO2.[Br-]`, for which the IC50 against Prolyl endopeptidase is 28.5 µM; at Acetylcholinesterase [1], 1.5 µM; with CHO-K1 (setting [7]), 14 µM. In “in vitro”, this molecule had an apparent permeability coefficient (Papp) at 6 h of 0.8 ×10⁻⁶ cm/s. In addition, the inhibition in data set [4] amounted to 62%. Besides, in data set [2], the concentration giving a half-maximal response (EC50) was above 6000 µM.

The values above are taken from ChEMBL document CHEMBL4706517, “Discovery of novel berberine derivatives with balanced cholinesterase and prolyl oligopeptidase inhibition profile” (Eur J Med Chem, 2020).
